Values quoted from earlier work as cited in US20230355939A1, “DEVICES AND METHODS FOR CONTINUOUS EXTRUSION OF A DRUG INTO THE MOUTH” (SynAgile Corporation, priority 2020, published 2023).

Conditions: at 37° C.

Row | SMILES | Approximate Pressure (vapor pressure) [bars]
1 | FC(C(F)(F)F)C(F)(F)F [1,1,1,2,3,3,3-hepta-fluoropropane] | ~6.4
2 | FCC(F)(F)F [1,1,1,2-tetrafluoroethane] | ~9.3
3 | FC(F)(F)CC(F)(F)F [1,1,1,3,3,3 hexafluoropropane] | ~4.0
4 | FCCF [1,2-difluoroethane] | ~1.9
5 | CCCCF [1-fluorobutane] | ~1.3
6 | CCCF [1-fluoropropane] | ~4.1
7 | CC=CC [2-butene] | ~3.2
8 | CC(C)F [2-fluoropropane] | ~5
9 | CCCC [butane] | ~3.5
10 | CCOCC [diethyl ether] | ~1.1
11 | CCC(C)C [isopentane] | ~1.4
12 | CCOC [methyl ethyl ether] | ~3
13 | CC(C)(C)C [neopentane] | ~2.4
14 | FC1(F)C(F)(F)C(F)(F)C1(F)F [octafluorocyclobutane] | ~4.3
15 | CCC [propane] | ~12.8
16 | C=CC [propene] | ~15.5

Same assay, conditions: at about 23 ± 3° C.

Row | vapor pressure | SMILES
17 | about 5 bars | FCC(F)(F)F [1,1,1,2-tetrafluoroethane]

Conditions: not given

Row | solubility | SMILES
18 | about 50 mg/mL | N[C@@H](Cc1ccc(O)c(O)c1)C(=O)O [LD, levodopa]
